Results: PubChem BioAssay (NCI)
Where “and” joins values, the source holds several entries; their conditions need not be identical. Equal entries are not always repeated.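 Assay format: 96-well plates, 48-hour exposure. Here, GI50 denotes the concentration required for 50% inhibition of growth. Definition used: TGI = concentration required for complete inhibition of growth.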

Assays:
Assay in all cases: NCI-60 cell line screen, 48 h
NCI-H23 lung = test system: NCI-H23 lung
HOP-92 NSCLC = test system: HOP-92 NSCLC
786-0 renal = test system: 786-0 renal
CAKI-1 renal = test system: CAKI-1 renal
UACC-257 melanoma = test system: UACC-257 melanoma
RPMI-8226 leukemia = test system: RPMI-8226 leukemia
MCF7 breast = test system: MCF7 breast
SW-620 colon = test system: SW-620 colon
EKVX NSCLC = test system: EKVX NSCLC
NCI/ADR-RES ovarian = test system: NCI/ADR-RES ovarian

SMILES | GI50 (NCI-H23 lung) | TGI (NCI-H23 lung) | GI50 (HOP-92 NSCLC) | TGI (HOP-92 NSCLC) | GI50 (786-0 renal) | TGI (786-0 renal) | GI50 (CAKI-1 renal) | TGI (CAKI-1 renal) | GI50 (UACC-257 melanoma) | TGI (UACC-257 melanoma) | GI50 (RPMI-8226 leukemia) | TGI (RPMI-8226 leukemia) | GI50 (MCF7 breast) | TGI (MCF7 breast) | GI50 (SW-620 colon) | TGI (SW-620 colon) | GI50 (EKVX NSCLC) | TGI (EKVX NSCLC) | GI50 (NCI/ADR-RES ovarian) | TGI (NCI/ADR-RES ovarian)
Cc1ccc(-c2nc(/C=N/Nc3cc(C)nc4ccc(Cl)cc34)c(C)o2)cc1 | 2.17 µM | 4.48 µM | 1.43 µM | 2.98 µM | 1.42 µM | 2.76 µM | 1.74 µM | 3.19 µM | 1.71 µM | 3.31 µM | 1.69 µM | 4.2 µM | 1.63 µM | 3.2 µM | 0.485 µM | 2.07 µM | 1.7 µM | 3.21 µM | 2.1 µM | 4.67 µM
COc1ccc(-c2cncn2-c2cc(OC)c(OC)c(OC)c2)cc1 | 0.659 µM | > 43.7 µM | 3.3 µM | > 61 µM | 0.115 µM | 43.7 µM | 0.051 µM | 1.85 µM | 6.73 µM | > 86.9 µM | 0.451 µM | 3.29 µM |  | > 34.8 µM | 0.0585 µM | > 100 µM | 3.06 µM | > 100 µM | 0.0652 µM | 0.915 µM
COc1cc(C2C3=C(COC3=O)N(CCO)c3cc4c(cc32)OCCO4)cc(OC)c1OC (stereo unspecified) | 0.203 µM |  | 0.111 µM | > 50 µM | 0.369 µM | > 50 µM | 2.11 µM | > 50 µM | 0.384 µM | > 50 µM | 0.149 µM |  | 0.192 µM | > 50 µM | 0.226 µM | > 50 µM | 0.413 µM | > 50 µM | 6.75 µM | > 40.7 µM
COc1ccccc1S(=O)(=O)Nc1ccc2c3c(cc(CCC(=O)NCCCCNc4cccc5c4C(=O)N(C4CCC(=O)NC4=O)C5=O)cc13)C(=O)N2C (stereo unspecified) | 17 µM | > 100 µM | 0.0318 µM | 0.515 µM | 2.18 µM | > 100 µM | 2.31 µM | > 100 µM | > 100 µM | > 100 µM | 0.625 µM | > 100 µM | 0.264 µM | > 100 µM | 0.24 µM | > 100 µM | 18.1 µM | > 100 µM | > 100 µM | > 100 µM
CCOC(=O)C(Cc1ccc(N(CCCl)CCCl)cc1)NC(=O)C(Cc1ccccc1)NC=O (stereo unspecified) |  | 0.399 µM |  | 0.419 µM |  | 0.303 µM |  | 0.264 µM |  | 0.54 µM |  | 0.355 µM |  | 0.502 µM |  | 0.414 µM |  | 0.538 µM |  | 0.656 µM
CCCc1cc(=O)n2c(C(=O)Nc3ccc(F)cc3)c(C(=O)Nc3ccc(F)cc3)sc2n1 | > 160 µM | > 160 µM | 5.27 µM | 18.6 µM | 2.64 µM | 13.3 µM | 75.3 µM | > 160 µM | 20.8 µM | 62.8 µM | 23.9 µM | 93.6 µM | 54.8 µM | > 160 µM | 56.5 µM | > 160 µM | > 160 µM | > 160 µM | 134 µM | > 160 µM
CC/C(Cc1ccccc1)=C(\c1ccc(OCCN2CCCC2)cc1)c1ccc(OC(=O)NCc2ccccc2)cc1 | 3.43 µM | 13.7 µM | 1.58 µM | 3.19 µM | 1.64 µM | 3 µM | 1.63 µM | 3.02 µM | 1.91 µM | 3.81 µM | 2.25 µM | 4.95 µM | 0.0994 µM | 2.16 µM | 1.93 µM | 3.77 µM | 2.37 µM | 7.39 µM | 2.66 µM | 10.3 µM
NC(=O)c1ccc(Oc2nccc(-c3c(-c4ccc(F)cc4)ncn3C3CCNCC3)n2)cc1 | > 25 µM | > 25 µM | > 25 µM | > 25 µM | > 25 µM | > 25 µM | > 25 µM | > 25 µM | > 25 µM | > 25 µM | > 25 µM | > 25 µM | > 25 µM | > 25 µM | > 25 µM | > 25 µM | > 25 µM | > 25 µM | > 25 µM | > 25 µM
CCCCCCSSC(=S)N(CC)CC | 27.8 µM | 92.8 µM | 32.4 µM | > 100 µM | 20.4 µM | 39.4 µM | 16.3 µM | 36.1 µM | 48.3 µM | > 100 µM | 18.8 µM | > 100 µM | 13.9 µM | 30.8 µM | 18.5 µM | 39.6 µM | 37.1 µM | > 100 µM | 28.1 µM | 96.5 µM
S=C1Cc2c(-c3ccc(Br)cc3)cc(-c3ccccc3)nc2-c2ccccc2N1 |  | 12.6 µM |  | 4.41 µM | 0.632 µM | 1.79 µM |  | 3.65 µM |  | 9.74 µM |  | 65.8 µM |  | > 100 µM |  | 9.15 µM |  | 4.67 µM |  | 4.43 µM
COC(=O)c1c(-c2cccs2)oc(-c2cccs2)c1C(=O)OC | 29.6 µM | 97.7 µM | 31.9 µM | > 100 µM | 18 µM | 49.8 µM | 26.7 µM | 69.3 µM | 40.3 µM | > 95.3 µM | 13.1 µM | 92.7 µM | 13.2 µM | > 100 µM | 31 µM | > 100 µM | 56.8 µM | > 100 µM | 31.6 µM | > 94.5 µM
COc1ccc(/C=C/c2c(C(=O)/C=C/c3ccc(C(F)(F)F)cc3)c(C)nc3ccccc23)cc1 |  |  | 1.62 µM | 3.59 µM | 1.61 µM | 3.02 µM | 1.13 µM | 2.56 µM | 2.09 µM | 4.52 µM | 0.807 µM | 7.65 µM | 1 µM | 3.4 µM | 1.48 µM | 4.7 µM | 1.72 µM | 4.49 µM | 2.36 µM | 7.46 µM
CCCCCC(O)C(O)CCC[C@H](O)[C@H]1CC[C@H]([C@H]2CC[C@H]([C@H](O)CCCCCCCCCCCCC3=C[C@H](C)OC3=O)O2)O1 (stereo partly specified) |  | 23.3 µM |  | 61.7 µM | 11.1 µM | 30.8 µM | 15.3 µM | 36.5 µM | 1.29 µM | 8.7 µM and 18.6 µM |  | 4.51 µM | 3.78 µM | 31.4 µM | 7.51 µM | > 100 µM | 6.94 µM | 26.4 µM | 2.75 µM | 8.99 µM and 29.1 µM
O=C(/C=C/C=C/c1ccccc1)c1ccco1 | 15 µM | 30.4 µM | 7.96 µM | 43.7 µM | 15.2 µM | 32.5 µM | 16 µM | 32.8 µM | 21.8 µM | 60.7 µM | 1.81 µM | 10.7 µM | 1.24 µM | 21.6 µM | 13.4 µM | 28.6 µM | 15.5 µM | 62.1 µM | 16.4 µM | 36.7 µM
COc1cccc2cc(N(C)c3nc(C)nc4c3CCC4)ccc12 | < 0.01 µM | 18 µM | < 0.0169 µM | 1.48 µM | < 0.01 µM | 14.4 µM | < 0.01 µM | 18.9 µM | 2.57 µM | 20.6 µM | < 0.01 µM | 18.5 µM | < 0.01 µM | 14.6 µM | < 0.01 µM | 18.6 µM | < 0.01 µM | 30.7 µM | < 0.01 µM | 16.1 µM
C#CC1=CC(=O)C(OC)=CC1=O |  | 60 µM |  | 34 µM |  | 20.1 µM |  | 42.6 µM |  | > 100 µM |  | 49.6 µM |  | 35.8 µM |  | 40 µM |  | 68.1 µM |  | > 100 µM
ClCc1ccccc1Cn1cnc2ncnc(Cl)c21 | 4.97 µM | 17.6 µM | 4.38 µM | 12.8 µM | 4.02 µM | 12.8 µM | 2.36 µM | 4.21 µM | 5.88 µM | 22.1 µM | 2.09 µM | 5.45 µM | 3.64 µM | > 100 µM | 2.24 µM | 4.72 µM | 5.33 µM | 17.6 µM | 2.1 µM | 4.47 µM
O=C(CN(/C=C/C(=O)C(F)(F)F)c1ccc(Cl)cc1)c1ccc(Cl)c(Cl)c1 | 6.1 µM | 19.2 µM | 3.21 µM | 14.5 µM | 11.5 µM | 24.5 µM | 3.61 µM | 12.7 µM | 14 µM | 30.2 µM | 3.74 µM | 17 µM | 3.42 µM | 16.6 µM | 13.2 µM | 30.5 µM | 14.5 µM | 29.3 µM | 6.03 µM | 19.7 µM
[N-]=[N+]=NCCCn1c2c(c3ccc([N+](=O)[O-])cc3c1=O)C(=O)c1cc(Br)ccc1-2 | > 100 µM | > 100 µM | 37.7 µM | > 100 µM | 42.4 µM | > 100 µM | 0.887 µM | > 100 µM | > 100 µM | > 100 µM | > 100 µM | > 100 µM | 8.15 µM | > 100 µM |  |  | > 100 µM | > 100 µM | > 100 µM | > 100 µM
COc1cc(/C=C/c2ccc(O)c(OC)c2)cc(OC)c1 |  | > 100 µM |  | 49.7 µM |  | > 100 µM |  | > 100 µM |  | 80.6 µM |  | > 100 µM |  | > 100 µM |  | > 100 µM |  | > 100 µM |  | > 100 µM
